Reference: patent US8183371B2, “Pyrazines as delta opioid receptor modulators” (Janssen Pharmaceutica NV, priority 2009, dated 2012)
Read-outs that look alike come from different tables or passages of the source.

How the values were obtained:
delta opioid receptor = target: T1, delta opioid receptor (Rattus norvegicus, UniProt P33533); experiment: Rat brain delta opioid receptor binding assay
T1 construct: from tissue; host or cells: forebrain of male Wistar rats
Description: Procedure: Male, Wistar rats (150-250 g, VAF, Charles River, Kingston, N.Y.) were killed by CO2, and their brains were removed and placed immediately in ice cold Tris HCl buffer (50 mM, pH 7.4). The forebrains were separated from the remainder of the brain by a coronal transection, beginning dorsally at the colliculi and passing ventrally through the midbrain-pontine junction. After dissection, the forebrains were homogenized in Tris buffer in a Teflon®-glass homogenizer. The homogenate was diluted to a concentration of 1 g of forebrain tissue per 80 mL Tris and centrifuged at 39,000×g for 10 min. The pellet was resuspended in the same volume of Tris buffer containing 5 mM MgCl2 with several brief pulses from a Polytron homogenizer. This particulate preparation was used for the delta opioid binding assays. Following incubation with the delta selective peptide ligand ˜4 nM [^3H]DPDPE or 0.25 nM [^3H]naltrindole at 25° C. for 2.5 h in a 96-well plate with total volume of 1 mL, the plate contents were filtered through Wallac filtermat B sheets on a Tomtec 96-well harvester. The filters were rinsed three times with 2 mL of 10 mM HEPES (pH 7.4), and dried in a 650 W microwave oven for 1.75 min twice. To each sample area 2×50 μL of Betaplate Scint scintillation fluid (LKB) was added and the radioactivity was quantified on a LKB (Wallac) 1205 BetaPlate liquid scintillation counter.
Analysis: The data from the scintillation counter were used to calculate either the % inhibition compared to control binding (when only a single concentration of test compound was evaluated) or a Ki value (when a range of concentrations was tested). Percent inhibition was calculated as: [(total dpm−test compound dpm)/(total dpm−nonspecific dpm)]*100. Kd and Ki values were calculated using GraphPad PRISM data analysis program.

δ-opioid receptor = target: T2, δ-opioid receptor (Mus musculus, UniProt P32300); experiment: [35S]GTPγS binding assay in NG108-15 cell membranes (delta opioid functional assay); assay type: biochemical; settings: for GTPγS δ-RelEfficacy @200 nM: 200 nM compound, relative to calculated max of SNC80 dose response
T2 construct: NG108-15 cell membranes were purchased from Applied Cell Sciences (Rockville, Md.); host or cells: NG108-15 cell membranes (purchased)
Description: Methods: NG108-15 cell membranes were purchased from Applied Cell Sciences (Rockville, Md.). 5 mg/mL of membrane protein was suspended in 10 mM TRIS-HCl pH 7.2, 2 mM EDTA, 10% sucrose. Membranes were maintained at 4-8° C. A 1 mL volume of membranes was added into 10 mL cold binding assay buffer. The assay buffer contained 50 mM Tris, pH 7.6, 5 mM MgCl2, 100 mM NaCl, 1 mM DTT and 1 mM EGTA. The membrane suspension was homogenized twice with a Polytron, and centrifuged at 3000 rpm for 10 min. The supernatant was then centrifuged at 18,000 rpm for 20 min. Ten mL of assay buffer was added into the pellet containing tube. The pellet and buffer were mixed with a Polytron.
Incubation procedure: The pellet membranes (75 μg/mL) were preincubated with SPA beads (10 mg/mL) at 25° C. for 45 min in the assay buffer. The SPA beads (5 mg/mL) coupled with membranes (37.5 μg/mL) were then incubated with 0.1 nM [^35S]GTPγS in the same Tris buffer containing 100 μM GDP in total volume of 200 μL. 200 nM of receptor agonists was used to stimulate [^35S]-GTPγS binding. The basal binding was tested in the absence of agonists and non-specific binding was tested in the presence of 10 μM unlabeled GTPγS.
Data % of Basal=(stimulated−non specific)*100/(basal−non specific). Relative Efficacy of a compound at 200 nM=(% of Basal of test compound at 200 nM)/(Calculated Max of SNC80 dose response. Curve in prism).

[1] = [3H]naltrindole ligand, read-out: δ-binding (Naltrindole ligand) Ki
[2] = read-out: GTPγS δ-opioid receptor EC50
[3] = rat forebrain membranes, ~4 nM [3H]DPDPE, read-out: δ-binding (DPDPE ligand) Ki

T1 sequence (P33533 whole entry): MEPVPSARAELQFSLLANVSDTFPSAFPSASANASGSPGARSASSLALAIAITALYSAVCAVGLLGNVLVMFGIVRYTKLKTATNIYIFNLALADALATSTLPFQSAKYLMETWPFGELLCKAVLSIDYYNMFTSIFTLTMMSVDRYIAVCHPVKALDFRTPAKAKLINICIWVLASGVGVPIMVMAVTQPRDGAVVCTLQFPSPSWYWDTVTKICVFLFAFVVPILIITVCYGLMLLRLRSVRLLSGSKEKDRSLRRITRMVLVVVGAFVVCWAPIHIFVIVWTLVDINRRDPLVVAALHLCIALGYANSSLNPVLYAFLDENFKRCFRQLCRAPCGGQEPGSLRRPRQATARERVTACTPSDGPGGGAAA
T2 sequence (P32300 whole entry): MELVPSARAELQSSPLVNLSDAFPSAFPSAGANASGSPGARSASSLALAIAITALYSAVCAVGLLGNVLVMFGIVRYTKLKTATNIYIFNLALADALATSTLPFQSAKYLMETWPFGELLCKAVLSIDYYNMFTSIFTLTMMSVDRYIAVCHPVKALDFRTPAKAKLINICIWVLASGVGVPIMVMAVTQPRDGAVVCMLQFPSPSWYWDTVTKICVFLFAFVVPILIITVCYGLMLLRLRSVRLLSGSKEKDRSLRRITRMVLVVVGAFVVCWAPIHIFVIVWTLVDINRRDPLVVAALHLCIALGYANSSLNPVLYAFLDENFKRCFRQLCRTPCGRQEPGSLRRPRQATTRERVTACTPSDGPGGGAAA

| Structure (SMILES) | Ki (delta opioid receptor; [1]) | GTPγS δ-RelEfficacy @200 nM (δ-opioid receptor) | GTPγS δ-opioid receptor Rel Efficacy (δ-opioid receptor) | EC50 (δ-opioid receptor; [2]) | Ki (delta opioid receptor) | EC50 (δ-opioid receptor) | Ki (delta opioid receptor; [3]) |
| --- | --- | --- | --- | --- | --- | --- | --- |
| COc1ccc(Oc2nc(-c3cncnc3)cnc2NCC2(N)CCCC2)cc1 [Cpd 22] | 2.9 nM | 0.2384 |  |  |  |  |  |
| COc1ccc(Cc2nc(-c3cncnc3)cnc2NC[C@@H]2CCCN2)cc1 [Cpd 17, [3-(4-Methoxy-benzyl)-5-pyrimidin-5-yl-pyrazin-2-yl]-pyrrolidin-2-(S)-ylmethyl-amine] | 19.9 nM | 0.1065 |  |  |  |  |  |
| COc1ccc(Oc2nc(-c3cncc(C#N)c3)cnc2NC[C@@H]2CCCN2)cc1F [Cpd 25] | 0.2 nM | 0.9130 | 1.0387 | 31.3 nM |  |  |  |
| COc1ccc(Oc2nc(-c3cncc(C#N)c3)cnc2N[C@H]2CC[C@@H](N)CC2)cc1 [Cpd 35] |  | 0.4157 | 1.2053 |  | 0.4 nM | 95.2 nM |  |
| COc1ccc(Oc2nc(-c3cncnc3)cnc2NC[C@H](C)N)cc1 [Cpd 20] | 0.6 nM | 0.6890 | 1.0287 | 50.5 nM |  |  |  |
| N#Cc1cncc(-c2cnc(NC[C@@H]3CCCN3)c(Oc3ccc(OC(F)(F)F)cc3)n2)c1 [Cpd 36] | 1.4 nM | 0.5598 | 0.9719 | 29.7 nM |  |  |  |
| c1cn(-c2ccc(Oc3nc(-c4cncnc4)cnc3NC[C@@H]3CCCN3)cc2)cn1 [Cpd 14] | 411 nM |  |  |  |  |  |  |
| N#Cc1cncc(-c2cnc(NC[C@@H]3CCCN3)c(Oc3ccccc3Cl)n2)c1 [Cpd 41] |  | 0.3049 | 1.2922 | 298 nM |  |  |  |
| Clc1ccc(Oc2nc(-c3cncnc3)cnc2NC[C@@H]2CCCN2)cc1 [Cpd 10] | 1.1 nM | 0.2150 |  |  |  |  |  |
| c1ncc(-c2cnc(NC[C@@H]3CCCN3)c(Oc3ccc4c(c3)CCO4)n2)cn1 [Cpd 33] | 4.3 nM |  |  |  |  |  |  |
| N#Cc1cncc(-c2cnc(NC[C@@H]3CCCN3)c(Oc3ccc4[nH]ccc4c3)n2)c1 [Cpd 40] |  | 0.6606 | 1.1190 | 39.3 nM |  |  |  |
| N#Cc1cncc(-c2cnc(NC[C@@H]3CCCN3)c(Oc3ccc(OC(F)F)cc3)n2)c1 [Cpd 29] | 0.3 nM | 0.0000 |  |  |  |  |  |
| COc1ccc(Oc2nc(-c3cncnc3)cnc2NC[C@@H]2CCCN2)cc1 [Cpd 5] |  |  | 1.0984 | 349 nM |  |  | 2.7 nM |
| N#CCc1ccc(Oc2nc(-c3cncc(C#N)c3)cnc2NC[C@@H]2CCCN2)cc1 [Cpd 27] | 6.4 nM | 0.9179 | 1.0035 | 34.2 nM |  |  |  |
| COc1ccc(Oc2nc(-c3cncnc3)cnc2NC[C@@H]2CCCN2)c(F)c1 [Cpd 9] |  |  | 1.1022 | 281 nM |  |  | 1.2 nM |
| Oc1cccc(Oc2nc(-c3cncnc3)cnc2NC[C@@H]2CCCN2)c1 [Cpd 15, 3-{6-Pyrimidin-5-yl-3-[(pyrrolidin-2-(S)-ylmethyl)-amino]-pyrazin-2-yloxy}-phenol] | 0.4 nM |  |  |  |  |  |  |
| N#Cc1ccc(Oc2nc(-c3cncnc3)cnc2NC[C@@H]2CCCN2)cc1 [Cpd 18] | 76.4 nM | 0.1065 |  |  |  |  |  |
| CCc1ccc(Oc2nc(-c3cncc(C#N)c3)cnc2NC[C@@H]2CCCN2)cc1 [Cpd 37] | 0.5 nM | 0.3353 |  |  |  |  |  |

| Structure (SMILES) | Ki (delta opioid receptor; [1]) | GTPγS δ-RelEfficacy @200 nM (δ-opioid receptor) | GTPγS δ-opioid receptor Rel Efficacy (δ-opioid receptor) | EC50 (δ-opioid receptor; [2]) | Ki (delta opioid receptor) | EC50 (δ-opioid receptor) | Ki (delta opioid receptor; [3]) |
| --- | --- | --- | --- | --- | --- | --- | --- |
| COc1ccc(Oc2nc(-c3cncc(C#N)c3)cnc2N[C@H]2CC[C@H](N)CC2)cc1 [Cpd 34] |  |  |  |  | 0.7 nM |  |  |
| COc1ccc(Cc2nc(-c3cncc(C#N)c3)cnc2NC[C@@H]2CCCN2)cc1 [Cpd 23] | 2.4 nM | 0.1174 |  |  |  |  |  |
| N#Cc1cncc(-c2cnc(NC[C@@H]3CCCN3)c(Oc3cccc(Cl)c3)n2)c1 [Cpd 42] |  | 0.7111 | 1.1894 | 84.4 nM |  |  |  |
| Clc1ccccc1Oc1nc(-c2cncnc2)cnc1NC[C@@H]1CCCN1 [Cpd 12, [3-(2-Chloro-phenoxy)-5-pyrimidin-5-yl-pyrazin-2-yl]-pyrrolidin-2-(S)-ylmethyl-amine] | 0.7 nM | 0.2356 |  |  |  |  |  |
| COc1ccc(Oc2nc(-c3cncc(C#N)c3)cnc2NCC2(N)CCCC2)cc1 [Cpd 21] | 0.6 nM | 0.2481 |  |  |  |  |  |
| COc1ccc(Cc2nc(-c3cccnc3)cnc2NC[C@@H]2CCCN2)cc1 [Cpd 16] | 15 nM |  | 0.3985 | 7320 nM |  |  |  |
| COc1ccc(Oc2nc(-c3cccnc3)cnc2N2CCNCC2)cc1 [Cpd 31] | 0.3 nM | 0.7579 | 1.0012 | 8.1 nM |  |  |  |
| COc1ccc(Oc2nc(-c3cncc(C#N)c3)cnc2NC[C@@H]2CCCN2)cc1 [Cpd 24] | 0.2 nM | 0.1669 |  |  |  |  |  |
| COc1ccc(Oc2nc(-c3cncc(C#N)c3)cnc2NC[C@@H]2CCCN2)c(F)c1 [Cpd 26] | 0.2 nM | 1.0180 | 1.0534 | 27.1 nM |  |  |  |
| N#Cc1cncc(-c2cnc(NC[C@@H]3CCCN3)c(Oc3cccc(O)c3)n2)c1 [Cpd 38, 5-{6-(3-Hydroxy-phenoxy)-5-[(pyrrolidin-2-(S)-ylmethyl)-amino]-pyrazin-2-yl}-nicotinonitrile] | 0.086 nM | 0.6472 | 1.1104 | 66.6 nM |  |  |  |
| CC(=O)Nc1cccc(Oc2nc(-c3cncnc3)cnc2NC[C@@H]2CCCN2)c1 [Cpd 13] | 4 nM | 0.0800 |  |  |  |  |  |
| COc1ccc(Oc2nc(-c3cncc(C#N)c3)cnc2NC[C@H](C)N)cc1 [Cpd 19] | 0.3 nM |  |  |  |  |  |  |
| Clc1cccc(Oc2nc(-c3cncnc3)cnc2NC[C@@H]2CCCN2)c1 [Cpd 11] | 1.8 nM | 0.2102 |  |  |  |  |  |
| N#Cc1cncc(-c2cnc(NC[C@@H]3CCCN3)c(Oc3ccc4occc4c3)n2)c1 [Cpd 39] | 0.2 nM | 1.0765 | 1.0736 | 4.6 nM |  |  |  |
| CCc1ccc(Oc2nc(-c3cncnc3)cnc2NC[C@@H]2CCCN2)cc1 [Cpd 6] |  |  | 1.1553 | 460 nM |  |  | 32.3 nM |
| Cc1ccc(Oc2nc(-c3cncc(C#N)c3)cnc2NC[C@@H]2CCCN2)cn1 [Cpd 28] | 13.2 nM | 0.1492 |  |  |  |  |  |
| c1ncc(-c2cnc(NC[C@@H]3CCCN3)c(Oc3ccc4c(c3)OCO4)n2)cn1 [Cpd 7] |  |  |  |  |  |  | 491 nM |
